The record followed here is ChEMBL document CHEMBL4418270, “Novel Pyrimidine- And Triazine-Hepcidine Antagonists” (2012).

In this assay the target is T1, Hepcidin (Homo sapiens) (UniProt P81172).
T1 sequence (whole entry): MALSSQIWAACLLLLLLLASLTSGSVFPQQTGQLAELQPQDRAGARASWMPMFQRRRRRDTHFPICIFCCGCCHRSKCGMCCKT
The experiment in a line: Inhibition of human hepcidin-stimulated recombinant C-terminal Halo-tagged human FPN internalization in MDCK cells at 10 uM incubated for 15 to 20 mins by Halo-tagged TMR based fluorescence assay relative to control. It is filed as cell-based.
One may read the inhibition as how much of the control response was suppressed. For `Cc1nc(-c2ccccn2)nc(NCCNc2cc(C(F)(F)F)ccn2)c1Cl`, the inhibition was under 50%.
Consider `Oc1cccc(/C=N/Nc2cc(N3CCOCC3)nc(N3CCOCC3)n2)c1`, for which the inhibition was over 50%.
For `c1ccc(N(c2ccccc2)c2nc(N3CCOCC3)nc(-n3ccnc3)n2)cc1`, the inhibition was over 50%.
The result for `CN(c1ccccc1)c1nc(N2CCOCC2)nc(-n2ccnc2)n1` reads under 50%; that for `Oc1ccccc1/C=N/Nc1cc(N2CCOCC2)nc(N2CCOCC2)n1`, over 50%; that for `Cc1nc(N/N=C/c2ccc(O)cc2O)cc(N2CCOCC2)n1`, over 50%.
Turning to `Cc1nc(-c2ccccn2)nc(NCCNc2ccc(C(F)(F)F)cn2)c1Cl`, the inhibition was under 50%.
Regarding `COc1cnc(-c2ccccn2)nc1NC(C)C`, the inhibition is over 50%.
The result for `Cc1ccc2cc(Nc3nc(N4CCOCC4)nc(N4CCOCC4)n3)ccc2n1` reads under 50%; that for `Nc1nc(-c2ccccn2)nc(N)c1Cc1ccccc1F`, under 50%; that for `COc1ccc(O)c(/C=N/Nc2nc(N3CCOCC3)nc(N3CCOCC3)n2)c1`, over 50%.
The result for `C/C(=N\Nc1cc(N2CCOCC2)nc(C)n1)c1ccc(F)cc1` reads under 50%.
